Values quoted from earlier work as cited in publication PMC5695669 (Journal of medicinal chemistry, 2012).

Tests used:
[1] = system: guinea pig ileum longitudinal muscle-myenteric plexus; conditions: read-out: GPI (IC50); functional bioactivity, ±SEM; ref [3]
rMor (μ opioid receptor) = rMor (μ opioid receptor) (Rattus norvegicus, UniProt P33535); conditions: [3H]DAMGO, ±SEM, ref [3]
Sequence of rMor (μ opioid receptor) (P33535 whole entry): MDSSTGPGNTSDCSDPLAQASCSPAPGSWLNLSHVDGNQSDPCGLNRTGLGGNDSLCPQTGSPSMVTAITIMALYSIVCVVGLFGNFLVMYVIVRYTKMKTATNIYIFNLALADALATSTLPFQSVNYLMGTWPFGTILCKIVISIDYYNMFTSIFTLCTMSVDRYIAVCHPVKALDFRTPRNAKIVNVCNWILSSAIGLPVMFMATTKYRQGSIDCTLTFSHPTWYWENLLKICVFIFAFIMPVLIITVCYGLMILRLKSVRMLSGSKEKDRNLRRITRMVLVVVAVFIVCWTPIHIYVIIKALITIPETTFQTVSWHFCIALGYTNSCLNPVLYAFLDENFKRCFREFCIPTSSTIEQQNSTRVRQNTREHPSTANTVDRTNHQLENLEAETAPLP

## H-Tyr-Pro-Phe-Phe-NH2 (H-YPFF-NH2) [EM-2]
[1]
  IC50: 15 ± 2 nM
rMor (μ opioid receptor)
  Ki: 9.6 ± 0.98 nM
